{"source": "patent US4528020A", "about": "“Urease inhibited urea based fertilizer compositions” (Allied Corporation, priority 1983, dated 1985)", "target": "jack bean urease (Canavalia ensiformis, UniProt P07374)", "sequence (P07374 whole entry, looked up)": "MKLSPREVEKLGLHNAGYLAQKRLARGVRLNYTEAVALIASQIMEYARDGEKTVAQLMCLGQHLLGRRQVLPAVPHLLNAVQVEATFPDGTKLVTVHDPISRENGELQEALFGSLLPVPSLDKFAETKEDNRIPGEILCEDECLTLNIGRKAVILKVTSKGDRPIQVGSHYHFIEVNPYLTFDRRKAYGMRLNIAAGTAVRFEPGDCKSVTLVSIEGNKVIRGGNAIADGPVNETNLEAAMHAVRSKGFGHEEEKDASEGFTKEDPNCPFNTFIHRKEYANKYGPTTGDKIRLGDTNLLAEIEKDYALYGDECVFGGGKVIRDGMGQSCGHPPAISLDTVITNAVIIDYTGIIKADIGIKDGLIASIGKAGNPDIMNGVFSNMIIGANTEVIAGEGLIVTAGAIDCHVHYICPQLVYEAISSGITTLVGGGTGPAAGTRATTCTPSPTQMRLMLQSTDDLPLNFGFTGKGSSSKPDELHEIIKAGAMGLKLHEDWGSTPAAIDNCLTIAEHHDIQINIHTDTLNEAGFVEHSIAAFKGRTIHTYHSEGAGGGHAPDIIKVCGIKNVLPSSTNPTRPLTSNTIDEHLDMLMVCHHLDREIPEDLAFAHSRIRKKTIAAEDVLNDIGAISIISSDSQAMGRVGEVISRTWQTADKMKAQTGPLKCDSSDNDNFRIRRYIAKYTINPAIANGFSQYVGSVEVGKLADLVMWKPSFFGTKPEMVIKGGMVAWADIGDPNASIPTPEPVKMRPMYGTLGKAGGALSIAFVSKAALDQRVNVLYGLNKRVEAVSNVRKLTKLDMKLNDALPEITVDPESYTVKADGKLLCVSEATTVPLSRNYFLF", "assay": "Urease inhibition in solution (modified Bremner procedure, purified jack bean urease in aqueous solution)", "type": "biochemical", "details": "commercial purified jack bean urease", "description": "Efficacy tests were conducted with jack bean urease. The procedure of Bremner (See. L. A. Douglas, J. M. Bremner, Soil Biology Biochem., 3, 859-859 (1970), and references cited therein was modified by replacing the soil as the source of urease with commercial purified jack bean urease. The incubation then proceeds in aqueous solution. The results are set forth in the following Table I.", "data": [{"smiles": "NP(N)(=O)NC(=O)c1ccc(N2C(=O)C=CC2=O)cc1", "note": "[N-(diaminophosphinyl)-4-(1'-maleimido)benzamide]", "values": [{"measurement": "inhibition at 1 µM", "setting": "compound at 10^-6 M, read-out: % Inhibition at Specific Concentration 10^-6 M", "value": 59, "unit": "%"}, {"measurement": "inhibition at 0.1 µM", "setting": "compound at 10^-7 M, read-out: % Inhibition at Specific Concentration 10^-7 M", "value": 8, "unit": "%"}]}]}
